Reference: patent publication US12409206B2, “Use of cyclosporine analogues for treating fibrosis” (Hepion Pharmaceuticals, Inc., priority 2020, dated 2025)

Legend:
[1] = test system: human precision cut IPF lung slices; test: Gene expression (RT-PCR) in precision cut IPF lung slices in culture; format: cell-based; conditions: CRV431 applied at 5 μM; Day 6 of culture after 4 days of treatment; β actin reference
Procedure: (§1) This example describes a study conducted with precision cut lung slices. Precision cut slices from explanted lung tissue from a patient with biopsy-confirmed, idiopathic pulmonary fibrosis (IPF) were cultured for 6 days. Treatments were applied to 6 replicate slices per treatment on Day 2 of culture and replaced daily on Days 3, 4, and 5 of culture.
For generating the results of gene expression shown in FIG. 6B, RNA was isolated from 6 pooled lung slices per treatment on Day 6 of culture following 4 days of drug or vehicle treatment and evaluated by reverse transcription-polymerase chain reaction (RT-PCR) for 6 markers of inflammation and fibrosis: MCP-1, IL-6, TGFβ TIMP1, collagen 1α1, and α-smooth muscle actin (αSMA). β actin was used as a reference gene to calculate relative levels of each target gene RNA.

[2] = test system: Human Lung Fibroblasts from a Patient with Idiopathic Pulmonary Fibrosis (IPF); test: Cell viability analysis, IPF lung fibroblast culture; format: cell-based; conditions: end of treatment (6 days)
Procedure: (§2) Human Lung Fibroblasts from a Patient with Idiopathic Pulmonary Fibrosis (IPF) (Lonza Bioscience, Cat. #CC-7231) were cultured in 96-well plates. Treatments were applied in triplicate wells (applied 100 ul treatments per well) for 6 days. Cells were near confluence at the start of treatments. […] Spent culture medium collected at the end of the treatments was assayed for procollagen and fibronectin by enzyme-linked immunosorbent assays (ELISA) (Procollagen ELISA antibody pair (ab216064) and fibronectin ELISA antibody pair (ab222262) from Abcam). Procollagen and fibronectin were not detected in medium not applied to cells. Procollagen and fibronectin levels in the medium are represented by means±SD (bars) from 3 replicate wells (open circles).

[3] = test system: five different types of fibroblasts; test: ECM production (procollagen, fibronectin ELISA), summary over five types of fibroblasts; format: cell-based, Human; conditions: dose-dependent; at clinically relevant concentrations
Excerpt: In the present example, five different types of fibroblasts, including (1) lung fibroblasts from a patient with idiopathic pulmonary fibrosis (“IPF”), (2) cardiac fibroblasts, (3) dermal (skin) fibroblasts, (4) renal mesangial cells, and (5) the LX2 hepatic stellate cell line, were used to determine the ability of CRV431 in decreasing production of the ECM molecules, collagen and fibronectin.
The extent of inhibition was similar whether or not the cells were stimulated with the profibrotic agent, transforming growth factor-beta (TGFβ), consistent with direct effects on ECM synthesis.

[4] = test system: Human renal mesangial cells; test: Procollagen and fibronectin ELISA of spent medium, renal mesangial cell culture; format: cell-based; conditions: medium from Day 2-4 of treatment, both in the absence or presence of 0.4 ng/ml TGFβ
Procedure: as §2, with “Human renal mesangial cells (ScienCell,” for “Human Lung Fibroblasts from a Patient with Idiopathic Pulmonary Fibrosis (IPF) (Lonza Bioscience,”, “Cat. #4200 (SC))” for “Cat. #CC-7231)”, “for 2 days, then re-applied for an additional 2” for “for 6”, “collected from Day 2-4” for “collected at the end”, “of treatment” for “of the treatments”

[5] = test system: human precision cut IPF lung slices; test: Secreted markers (ELISA) in precision cut IPF lung slices in culture; format: cell-based; conditions: CRV431 applied at 5 μM; 4 daily treatment intervals; relative to DMSO vehicle
Procedure: as §1
For generating the results of secreted marker (% daily average change) shown in FIG. 6A, spent medium (24-hr intervals) was collected on Days 3, 4, 5, and 6 to measure secretion by ELISA of six markers of inflammation and fibrosis: monocyte chemoattractant protein (MCP-1), interleukin-6 (IL-6), matrix metalloproteinase-7 (MMP-7), tissue inhibitor of metalloproteinase-1 (TIMP1), hyaluronic acid, and collagen 1α1. The mean level of secretion from 6 replicate slices for each drug treatment was expressed as a percentage change relative to DMSO vehicle treatment for each day of treatment, and then the mean percentage change from 4 daily treatment intervals was calculated.

[6] = test system: human precision cut liver slices (PCLS); test: PCLS gene expression by RT-PCR; format: cell-based
Procedure: PCLS were obtained from 5 human donors who underwent resection of liver cancer. Replicate slices were collected from healthy margins of the resections and cultured for 4 or 6 days depending on the experimental protocol. In the Nonstimulation Protocol slices were cultured for 6 days and treated for the entire period with DMSO vehicle or 5 μM CRV431. In the Stimulation Protocol slices were rested for 1 day and then administered the cytokines, TGFβ and PDGF-BB, for 3 days to stimulate inflammation and fibrosis. DMSO vehicle, CRV431 (1 and 5 μM), Alk5i (10 μM), obeticholic acid (5 μM), elafibranor (5 μM), resmetirom ([…]), and Aramchol (5 μM) were administered individually as drug treatments in the Stimulation Protocol concurrent with TGFβ+PDGF-BB. Culture medium treatments were replaced daily.
Four types of evaluations were conducted on the PCLS: (a) secretion of inflammation and fibrosis biomarkers into the culture medium, (b) histological staining and quantitation of Sirius red as a measure of tissue fibrosis, (c) gene expression of inflammation and fibrosis biomarkers by RT-PCR, and (d) RNA sequencing (RNA-Seq) of the complete transcriptome. Each of the four types of evaluation is described below: • (a) Biomarker secretion. Spent culture medium was collected daily from duplicate slices for each treatment. ELISAs were used to quantify secretion of monocyte chemoattractant protein (MCP-1), interleukin-6 (IL-6), tissue inhibitor of metalloproteinase-1 (TIMP1), hyaluronic acid, fibronectin, and collagen 1α1. For each donor the mean level of biomarker secretion in each treatment group was expressed as a percentage change relative to DMSO vehicle, the percentages averaged for all donors, and finally the mean daily percentage change calculated from all days of evaluation. […] Sirius red was quantified morphometrically in the histological sections as the percentage area with Sirius red staining in 10 sections from each treatment. In the Nonstimulation Protocol the quantity of Sirius red staining was expressed relative to the vehicle group. In the Stimulation Protocol the quantity of Sirius red staining was expressed relative to nonstimulated PCLS (0%) and TGFβ+PDGF-BB-stimulated+vehicle PCLS (100%). […] RNA was isolated from duplicate liver slices per treatment at the end of the experiments and evaluated by RT-PCR for 5 markers of inflammation and fibrosis: MCP-1, IL-6, TIMP1, αSMA, and collagen 1α1. β actin was used as a reference gene to calculate relative levels of each target gene RNA. […] RNA sequencing of the complete transcriptome (30 million reads per sample) was conducted on vehicle and 5 μM CRV431 treatment groups from 3 donors both from the Nonstimulation and Stimulation Protocols. […]

**Q.** What does the source list for `CC[C@@H]1NC(=O)[C@H]([C@H](O)[C@H](C)CCCCCCNC(C)=O)N(C)C(=O)[C@H](C(C)C)N(C)C(=O)[C@H](CC(C)C)N(C)C(=O)[C@H](CC(C)C)N(C)C(=O)[C@@H](C)NC(=O)[C@H](C)NC(=O)[C@H](CC(C)C)N(C)C(=O)[C@H](C(C)C)NC(=O)[C@H](CC(C)C)N(C)C(=O)[C@@H](C)N(C)C1=O` [CRV431]?
**A.** gene expression of all markers (MCP-1, IL-6, TGFβ, TIMP1, collagen 1α1, αSMA) [1]: decreased; cell viability [2]: none of the CRV431 treatments affected cell viability; decrease of ECM production [3]: up to 55%; abundance of fibronectin in the medium [4]: dose-dependently decreased; abundance of procollagen in the medium [4]: dose-dependently decreased; mean daily secretion of all markers (MCP-1, IL-6, MMP-7, TIMP1, hyaluronic acid, collagen 1α1) [5]: decreased; gene expression of all markers ([6]; CRV431 applied at 5 μM, markers MCP-1, IL-6, TIMP1, αSMA, collagen 1α1): decreased; RNA levels of collagen1α1, αSMA, TIMP1, IL-6, and MCP-1 ([6]; qRT-PCR): reductions in RNA levels
